Earlier results, collected in US20090017243A1, “Conveyor lubricant, passivation of a thermoplastic container to stress cracking and thermoplastic stress crack inhibitor” (Ecolab Inc., priority 1999, published 2009).

Settings: 96 wt. % solution of glycerol in water

With `OCC(O)CO` [glycerol] as the molecule, how does the specific gravity read?
Its specific gravity is 1.25.
